Test results: patent publication US20100113390A1, “OLIGOSACCHARIDES DERIVED FROM FUCOIDAN” (SUNTORY HOLDINGS LIMITED, priority 2007, published 2010)

How the values were obtained:
α-glucosidase = test: Measurement of α-glucosidase activity (p-nitrophenyl-α-D-glucopyranoside substrate, A405 nm); type: biochemical, yeast; settings: for α-glucosidase inhibitory activity (% inhibition): at 5 mg/ml (samples adjusted to 50 mg/ml H2O), duplicate, FIG. 29
Method: 1. 0.1 M sodium phosphate buffer (a mixture of 0.1 M NaH2PO4.2H2O and 0.1 M Na2HPO4.12H2O, adjusted to pH 7.0) was supplemented with 2 g/L bovine serum albumin (a product of Nacalai Tesque, Inc., Japan, F-V, pH 5.2, purity: 96%) and 0.2 g/L NaN3 (a product of Nacalai Tesque, Inc., Japan, reagent grade). As an enzyme solution, α-glucosidase (a product of Wako Pure Chemical Industries, Ltd., Japan, derived from yeast, 100 units/mg) was dissolved in the above buffer at 0.5 units/mg protein/ml (100 μg/20 ml). As a substrate solution, p-nitrophenyl-α-D-glucopyranoside (a product of Nacalai Tesque, Inc., Japan, reagent grade) was dissolved in the above buffer at 5 mM (7.525 mg/5 ml). 2. For use as samples, GF (I) purified in Example 3 was adjusted to 200 mg/ml H2O and diluted two-fold to give 6 dilutions. Using a 96-well microplate, the enzyme solution (45 μL) was added to each of the sample solutions (10 μL) and pre-incubated at 37° C. for 5 minutes. After addition of the substrate solution (45 μL), each sample was measured for absorbance A405 nm (A405 nm at 0 min) and, after incubation at 37° C. for 5 minutes, was then measured for absorbance A405 nm (A405 nm at 5 min). As a control, H2O was added in place of the samples and measured for absorbance. The difference in A405 nm from the control was calculated as % inhibition. Activity measurement was made in quadruplicate. 3. […] As comparative samples, X2 (xylobiose) and glucuronic acid (Sigma-Aldrich) were neutralized with NaOH and adjusted to 50 mg/ml H2O (calculated based on the amount of glucuronic acid). […] After addition of the substrate solution (45 μl), each of the samples was measured for absorbance A405 nm (A405 nm at 0 min) and, after incubation at 37° C. for 5 minutes, was then measured for absorbance A405 nm (A405 nm at 5 min). As a control, H2O was added in place of the samples, and the difference in A405 nm from the control was calculated as % inhibition. […]

[1] = molecular target: T1, porcine pancreatic lipase (Sus scrofa, UniProt P00591); test: Measurement of lipase inhibitory activity (4-methylumbelliferone oleic acid ester, fluorescence); type: biochemical; settings: at 4 mg/ml final concentration, FIG. 30
T1 construct: purchased SIGMA
T1 sequence (P00591 1-450): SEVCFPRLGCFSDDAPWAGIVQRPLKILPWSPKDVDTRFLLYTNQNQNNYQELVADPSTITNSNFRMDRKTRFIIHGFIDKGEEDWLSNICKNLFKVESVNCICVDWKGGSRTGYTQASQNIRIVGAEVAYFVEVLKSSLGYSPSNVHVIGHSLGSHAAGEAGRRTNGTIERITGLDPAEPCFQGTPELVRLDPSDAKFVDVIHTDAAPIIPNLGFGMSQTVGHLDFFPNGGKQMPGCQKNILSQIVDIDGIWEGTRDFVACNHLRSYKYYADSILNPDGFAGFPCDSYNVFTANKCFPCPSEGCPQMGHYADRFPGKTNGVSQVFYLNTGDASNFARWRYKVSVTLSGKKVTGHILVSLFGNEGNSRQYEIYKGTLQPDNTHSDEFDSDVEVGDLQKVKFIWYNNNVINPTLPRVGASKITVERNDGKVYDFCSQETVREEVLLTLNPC
Method: 1. In a 96-well flat-bottomed plate, GF (I) prepared in Example 3, as well as the GSFaF (VII)-containing fraction and the GSF fraction containing (V) and GSFF (VI) prepared in Example 4 were each adjusted to give a final concentration of 4 mg/ml (25 μl), followed by addition of 50 μl buffer (130 mM Tris-HCl buffer (pH 8.0, containing 150 mM NaCl and 1.36 mM CaCl2)) and 25 μl 4-methylumbelliferone oleic acid ester (SIGMA, final concentration: 100 μM). The plate was allowed to stand for 30 minutes at room temperature. Then, lipase (porcine pancreatic lipase, SIGMA) was added in a volume of 50 μl (final concentration: 100 U/ml) to initiate the reaction. 2. After 30 minutes, 100 μl citrate buffer (pH 4.2) was added to stop the reaction. The fluorescence intensity of 4-methylumbelliferone generated by the reaction (excitation wavelength: 355 nm, fluorescence wavelength: 460 nm) was measured with a fluorescence plate reader (Fluoroskan Asent CF, Labsystems). 3. As a control, water was used in place of the samples. As a blank, water was used in place of the samples and buffer was used in place of lipase. The following equation was used to calculate lipase inhibitory activity. 4. Calculation equation
Lipase inhibitory activity (%)=100−(A−B)/(C−B)×100
A: fluorescence intensity in sample, B: fluorescence intensity in blank, C: fluorescence intensity in control

α-glucosidase IC50 (α-glucosidase; GF (I) purified in Example 3, 6 two-fold dilutions, quadruplicate) [mg/mL]	inhibition at 4000 µg/mL [1] [%]	α-glucosidase inhibitory activity (% inhibition) (α-glucosidase) [%]	SMILES
20.4	81	–	CC1OC(O)C(OC2OC(C(=O)O)C(O)C(O)C2O)C(O)C1O [GF (I), α-D-GlcA-(1→2)-L-Fuc]
–	–	10.15	OC1OC[C@@H](O[C@@H]2OC[C@@H](O)[C@H](O)[C@H]2O)[C@H](O)[C@H]1O (stereo partly shown) [X2, xylobiose]
–	–	8	O=C(O)[C@H]1OC(O)[C@H](O)[C@@H](O)[C@@H]1O (stereo partly shown) [glucuronic acid]
